The values below come from US20140271694A1, “ANTIGEN-SPECIFIC METHODS OF DIAGNOSING AND/OR TREATING MYOCARDITIS OR INFLAMMATORY CARDIOMYOPATHY” (Joslin Diabetes Center, Inc., priority 2013, published 2014).

Entries after “also recorded” stand apart in the source; their conditions may differ.

The subject of assay [1] is alpha myosin HC presentation to DQ8 molecules. As to the kind of experiment: Cardiac myosin-specific DQ8-restricted Clone E T cell hybridoma (BWZ.36.CE, lacZ/β-galactosidase readout) antigen presentation assay. The settings on record: in vitro, dose-dependent, DQ8-expressing APCs. Format: cell-based, human. The source says: FIGS. 15A-C are data showing that the small molecule, tetraazatricyclododecane (TATD), that was predicted to bind pocket 6 of the DQ8 peptide-binding groove (Michels et al, Journal of immunology, 2011), inhibits cardiac myosin presentation by DQ8 to T cells. FIGS. 15A and B are graphs showing that T cell response to insulin B9:23 peptide, measured by IL-2 concentration, is blocked by TATD in a dose dependent manner, for DQ8 and I-Ag7 (Michels et al., Journal of Immunology, 2011). FIG. 15C is a graph showing that T cell response to cardiac myosin stimulation is blocked in vitro by TATD is a dose-dependent manner, in a manner similar to the blocking effect on insulin B9:23 presentation to DQ8. In this assay, T cell responses were measured using our cardiac myosin-specific DQ8-restricted (Clone E) T cell hybridoma that was engineered to produce β-galactosidase following T-cell receptor-antigen stimulation.
To assess the potential efficacy in the setting of post-infarct autoimmunity, we created a lacZ-inducible alpha myosin HC-specific CD4^+ T-cell hybridoma by fusing Clone E, a pathogenic DQ8-restricted CD4^+ T cell clone isolated from a myocarditic heart (Lv H et al., J Clin Invest, 2011) (FIGS. 14A-D), and BWZ.36 fusion partner (Karttunen J et al., Proc Natl Acad Sci USA, 1992), and successfully generated the hybrid, BWZ.36.CE. […]

The test system of another assay is I-Ag7. The settings on record: I-Ag7, dose dependent; cited from earlier work.
A further assay concerns NOD mice. The conditions noted are these: cited from earlier work.
In the next assay the test system is DQ8. The conditions noted are these: cited from earlier work.

As to `C1CN2CN3CCN(CN1C3)C2` [TATD, tetraazatricyclododecane], the “block of alpha myosin HC presentation to DQ8 molecules (T cell response to cardiac myosin stimulation)” value in assay [1] is reported as “completely block; also recorded: blocked”. The “T cell response to insulin B9:23 peptide, measured by IL-2 concentration” value in the assay on I-Ag7 is on record as “blocked”; in the assay with DQ8 (DQ8, dose dependent) it was “blocked”. The “preventing T1D in NOD mice” value in the assay with NOD mice is “efficacious”. Also, the “relative potency of blocking DQ8 versus I-Ag7 molecules” value in the assay on DQ8 (DQ8 compared with I-Ag7) is “more potently blocks DQ8 than I-A^g7”.
